# Data: patent US20110176998A1, “IMAGING AND THERAPY OF VIRUS-ASSOCIATED TUMORS” (THE JOHNS HOPKINS UNIVERSITY, priority 2007, published 2011)
# Key:
# [1] = earlier clinical use of FIAU (toxicity); format: in vivo, humans; settings: conservatively estimated
# Procedure: With regard to the potential clinical use of BETR therapy, FIAU-associated toxicity warrants discussion. FIAU was previously investigated as an antiviral agent. […] In those trials, treatment for less than four weeks with a cumulative dose less than 200 mg was not associated with either clinical or biochemical evidence of toxicity. Thus, the “no-effect dose” of FIAU might be conservatively estimated to be on the order of 0.1 mg/kg per administration. […] Extrapolating from xenograft experiments, a radiotherapeutic effect is likely to be achieved at doses of FIAU that are orders of magnitude times less than the no-effect FIAU dose in humans.
# [2] = cited from earlier work
# [3] = serum and whole blood; 24 hour period; cited from earlier work
# [4] = in vivo; cited from earlier work
smiles,measurement,setting,value
"O=c1[nH]c(=O)n([C@@H]2O[C@H](CO)[C@@H](O)[C@@H]2F)cc1I [FIAU, 2′-fluoro-2′-deoxy-β-D-5-iodouracil-arabinofuranoside]",no-effect dose,[1],~0.1 mg/kg per administration
same,toxicity of chronic dosing,[2]; earlier antiviral trials,hepatic damage and in some cases fatality
same,cumulative dose not associated with clinical or biochemical evidence of toxicity,[2]; treatment for less than four weeks,less than 200 mg
same,labeled compound remaining unchanged,[3],97.8%±0.1%
same,blood-brain barrier penetration,[4],does not penetrate the blood-brain barrier
